Experimental findings from ChEMBL document CHEMBL5303304, “EUbOPEN Chemogenomics Library - IncuCyte” (2023) are described below.

Assay type in all cases: toxicity, cell-based
Series [1] has as its system U2OS. The series can be described thus: Incucyte cell viability with U2OS. The settings on record: human, 10 µM, compound concentration 10 uM.
For series [2], the system named is Fibroblast. Kind of series: Incucyte cell viability with human fibroblast. The settings on record: 10 µM, compound concentration 10 uM.
Series [3] has as its system HEK-293T. Kind of series: Incucyte cell viability with HEK293T. The settings on record: human, 10 µM, compound concentration 10 uM.
Further: unitless GR value; below 1 slowed growth and below 0 cell loss.

With `COc1cc(-c2nn([C@H]3CC[C@H](N4CCN(C(C)=O)CC4)CC3)c3ncnc(N)c23)ccc1NC(=O)c1cc2ccccc2n1C`, the “Growth Rate” value was -0.86 in series [1] (0 h, replicate number 1); 0.2 in series [1] (0 h, replicate number 2); 0.32 in series [1] (6 h, replicate number 1); 0.56 in series [1] (6 h, replicate number 2); 0.44 in series [1] (12 h, replicate number 1); 0.61 in series [1] (12 h, replicate number 2). Also, the “Growth Rate” value in series [1] (18 h, replicate number 1) is 0.44; in series [1] (18 h, replicate number 2), 0.95; in series [1] (24 h, replicate number 1) it was 0.44; in series [1] (24 h, replicate number 2) it was 0.91; in series [2] (0 h, replicate number 1), -1; in series [2] (6 h, replicate number 1), -0.52. For the same compound, the “Growth Rate” value in series [2] (6 h, replicate number 2) was -0.77; in series [2] (12 h, replicate number 1), -0.69; in series [2] (12 h, replicate number 2) it was 0.45; in series [2] (18 h, replicate number 1) it was -0.56; in series [2] (24 h, replicate number 1), -0.45; in series [3] (6 h, replicate number 1), -0.95. Also, the “Growth Rate” value is reported as -0.96 in series [3] (6 h, replicate number 2); -0.39 in series [3] (12 h, replicate number 1); -0.18 in series [3] (12 h, replicate number 2); 0.38 in series [3] (18 h, replicate number 1); 0.59 in series [3] (18 h, replicate number 2); 0.69 in series [3] (24 h, replicate number 1). In addition, in series [3] (24 h, replicate number 2), the “Growth Rate” value is listed as 0.89.
For `CCN(CC)CCO[C@H]1CC[C@@]2(C)C(=CC[C@@H]3[C@@H]2CC[C@]2(C)C(=O)CC[C@@H]32)C1.Cl`, the “Growth Rate” value in series [1] (0 h, replicate number 1) is recorded as 0.56; in series [1] (6 h, replicate number 1), 0.77; in series [1] (24 h, replicate number 1), 0.91; in series [2] (6 h, replicate number 1), 0.34; in series [2] (12 h, replicate number 1) it was -0.34; in series [2] (12 h, replicate number 2), -0.05. The “Growth Rate” value in series [2] (18 h, replicate number 1) was -0.18; in series [2] (18 h, replicate number 2), -0.06; in series [2] (24 h, replicate number 1), -0.25; in series [2] (24 h, replicate number 2) it was -0.11; in series [3] (6 h, replicate number 1), 0.35; in series [3] (6 h, replicate number 2), 0.24. Also, the “Growth Rate” value in series [3] (12 h, replicate number 1) came out at 0.32; in series [3] (12 h, replicate number 2), 0.31; in series [3] (18 h, replicate number 1) it was 0.45; in series [3] (18 h, replicate number 2), 0.42; in series [3] (24 h, replicate number 1) it was 0.53; in series [3] (24 h, replicate number 2) it was 0.52.
On to `C[C@@H]1COCCN1c1cc(=O)n2c(n1)N(Cc1cncc(Cl)c1)[C@H](C(F)(F)F)CC2`, for which the “Growth Rate” value in series [1] (0 h, replicate number 1) came to 0.01; in series [1] (6 h, replicate number 1) it was 0.61; in series [1] (12 h, replicate number 1), 0.92; in series [1] (12 h, replicate number 2) it was 0.89; in series [1] (18 h, replicate number 1), 0.87; in series [1] (18 h, replicate number 2), 0.95. The “Growth Rate” value is 0.73 in series [1] (24 h, replicate number 1); -0.86 in series [2] (0 h, replicate number 2); 0.36 in series [2] (6 h, replicate number 1); -0.75 in series [2] (6 h, replicate number 2); 0.72 in series [2] (12 h, replicate number 1); 0.29 in series [2] (12 h, replicate number 2). The “Growth Rate” value in series [2] (18 h, replicate number 1) is given as 0.92; in series [2] (24 h, replicate number 1), 0.83; in series [3] (6 h, replicate number 1), -0.3; in series [3] (6 h, replicate number 2), -0.11; in series [3] (12 h, replicate number 1), 0.15; in series [3] (12 h, replicate number 2), 0.44. The “Growth Rate” value is listed as 0.39 in series [3] (18 h, replicate number 1); 0.54 in series [3] (18 h, replicate number 2); 0.39 in series [3] (24 h, replicate number 1); 0.45 in series [3] (24 h, replicate number 2).
As for `Cc1cc2nc(N3CCC(C(=O)NC4CCCC4)CC3)n(C(C)C)c2cc1C`, the “Growth Rate” value in series [1] (0 h, replicate number 2) is -0.6; in series [1] (6 h, replicate number 2) it was 0.39; in series [1] (12 h, replicate number 1) it was 0.79; in series [1] (12 h, replicate number 2), 0.47; in series [1] (18 h, replicate number 2) it was 0.67; in series [1] (24 h, replicate number 1), 0.95. For the same compound, the “Growth Rate” value in series [1] (24 h, replicate number 2) is reported as 0.8; in series [2] (0 h, replicate number 1), -1; in series [2] (6 h, replicate number 1), 0.17; in series [2] (12 h, replicate number 1), 0.26; in series [2] (12 h, replicate number 2), 0.74; in series [2] (18 h, replicate number 1) it was 0.48. Besides, the “Growth Rate” value was determined as 0.7 in series [2] (18 h, replicate number 2); 0.4 in series [2] (24 h, replicate number 1); 0.78 in series [2] (24 h, replicate number 2); 0.3 in series [3] (6 h, replicate number 1); 0.77 in series [3] (12 h, replicate number 1); 0.97 in series [3] (18 h, replicate number 1). In addition, the “Growth Rate” value in series [3] (24 h, replicate number 1) is 0.88.
Take `CSc1ccc(C[C@@H](C)C(=O)O)cc1Nc1nc(N2CC[C@H](N(C)C)C2)cc(C(F)F)c1C#N.O=C(O)C(F)(F)F`: the “Growth Rate” value in series [1] (6 h, replicate number 1) is listed as 0.8; in series [2] (0 h, replicate number 1) it was -1; in series [2] (6 h, replicate number 1), -0.12; in series [2] (12 h, replicate number 1), 0.16; in series [2] (12 h, replicate number 2) it was 0.34; in series [2] (18 h, replicate number 1), 0.21. Besides, the “Growth Rate” value in series [2] (18 h, replicate number 2) amounted to 0.8; in series [2] (24 h, replicate number 1) it was 0.3; in series [2] (24 h, replicate number 2), 0.79; in series [3] (6 h, replicate number 1) it was 0.25; in series [3] (12 h, replicate number 1), 0.39; in series [3] (12 h, replicate number 2) it was 0.58. Besides, the “Growth Rate” value in series [3] (18 h, replicate number 1) was 0.43; in series [3] (18 h, replicate number 2), 0.51; in series [3] (24 h, replicate number 1), 0.48; in series [3] (24 h, replicate number 2), 0.58.
`Cn1nc(-c2ccc(C(N)=O)cc2)c2ccccc2c1=O`: the “Growth Rate” value was determined as 0.98 in series [1] (0 h, replicate number 2); 0.58 in series [1] (6 h, replicate number 1); 0.8 in series [1] (12 h, replicate number 1); 0.97 in series [1] (12 h, replicate number 2); 0.93 in series [1] (18 h, replicate number 1); 0.96 in series [1] (24 h, replicate number 1). In addition, the “Growth Rate” value in series [2] (6 h, replicate number 1) turned out to be 0.25; in series [2] (12 h, replicate number 1), 0.99; in series [2] (12 h, replicate number 2) it was 0.65; in series [2] (18 h, replicate number 1), 0.84; in series [2] (24 h, replicate number 1) it was 1; in series [3] (6 h, replicate number 1), 0.11. In addition, the “Growth Rate” value turned out to be 0.45 in series [3] (6 h, replicate number 2); 0.75 in series [3] (12 h, replicate number 1); 0.4 in series [3] (12 h, replicate number 2); 0.73 in series [3] (18 h, replicate number 1); 0.55 in series [3] (18 h, replicate number 2); 0.79 in series [3] (24 h, replicate number 1). Also, the “Growth Rate” value in series [3] (24 h, replicate number 2) is recorded as 0.74.
Turning to `CCOC(=O)/N=C(\N)c1ccc(OCc2cccc(COc3ccc(C(C)(C)c4ccc(OC(=O)OCC)cc4)cc3)c2)cc1`, the “Growth Rate” value in series [1] (6 h, replicate number 1) is 0.84; in series [2] (0 h, replicate number 1) it was -0.98; in series [2] (6 h, replicate number 1) it was 0.42; in series [2] (6 h, replicate number 2), -0.28; in series [2] (12 h, replicate number 1) it was 0.73; in series [2] (12 h, replicate number 2) it was 0.87. Besides, the “Growth Rate” value in series [2] (18 h, replicate number 1) is 0.66; in series [2] (18 h, replicate number 2), 0.76; in series [2] (24 h, replicate number 1) it was 0.41; in series [2] (24 h, replicate number 2) it was 0.79; in series [3] (6 h, replicate number 1) it was -0.49; in series [3] (6 h, replicate number 2) it was -0.42. In addition, the “Growth Rate” value was 0.04 in series [3] (12 h, replicate number 1); -0.1 in series [3] (12 h, replicate number 2); 0.49 in series [3] (18 h, replicate number 1); 0.08 in series [3] (18 h, replicate number 2); 0.77 in series [3] (24 h, replicate number 1); 0.11 in series [3] (24 h, replicate number 2).
With `CCN1C(=O)/C(=C(\NC2CCN(C)CC2)c2ccc3c(c2)OCO3)c2cc(C(C)=O)ccc21`, the “Growth Rate” value was 0.46 in series [1] (0 h, replicate number 1); -0.34 in series [1] (0 h, replicate number 2); 0.59 in series [1] (6 h, replicate number 1); 0.61 in series [1] (6 h, replicate number 2); 0.81 in series [1] (12 h, replicate number 2); 0.89 in series [1] (24 h, replicate number 1). The “Growth Rate” value in series [1] (24 h, replicate number 2) is 0.95; in series [2] (0 h, replicate number 1), -1; in series [2] (6 h, replicate number 1), 0.42; in series [2] (6 h, replicate number 2), 0.53; in series [2] (12 h, replicate number 1) it was 0.32; in series [2] (12 h, replicate number 2) it was 0.27. Besides, the “Growth Rate” value in series [2] (18 h, replicate number 1) came out at 0.7; in series [2] (18 h, replicate number 2), 0.5; in series [2] (24 h, replicate number 1) it was 0.64; in series [2] (24 h, replicate number 2) it was 0.76; in series [3] (6 h, replicate number 1), 0.44; in series [3] (6 h, replicate number 2), 0.16. Also, the “Growth Rate” value came to 0.64 in series [3] (12 h, replicate number 1); 0.78 in series [3] (12 h, replicate number 2); 0.63 in series [3] (18 h, replicate number 1); 0.77 in series [3] (18 h, replicate number 2); 0.71 in series [3] (24 h, replicate number 1).
Turning to `O=C(N[C@H](Cc1ccccc1)C(=O)O)c1cccc(OCc2cccnc2)c1.O=CO`, the “Growth Rate” value in series [1] (0 h, replicate number 1) came to 0.75; in series [1] (0 h, replicate number 2), 0.39; in series [1] (6 h, replicate number 1), 0.69; in series [1] (6 h, replicate number 2) it was 0.67; in series [1] (12 h, replicate number 1), 0.66; in series [1] (12 h, replicate number 2), 0.77. In addition, the “Growth Rate” value in series [1] (18 h, replicate number 2) worked out at 0.98; in series [1] (24 h, replicate number 1), 0.8; in series [1] (24 h, replicate number 2) it was 0.86; in series [2] (6 h, replicate number 1) it was 0.68; in series [2] (12 h, replicate number 1), 0.47; in series [2] (12 h, replicate number 2), 0.7. The “Growth Rate” value in series [2] (18 h, replicate number 1) is 0.93; in series [2] (18 h, replicate number 2), 0.81; in series [2] (24 h, replicate number 1), 0.88; in series [3] (6 h, replicate number 1), 0.73; in series [3] (18 h, replicate number 1) it was 1.
